In patent publication US20050129779A1, “Use of a hsp inducing compound to limit the side effects of retinoids” (priority 2002, published 2005):

Columns and labels:
HSP 70 [1] = assay: Immuno-blot of HSP in cultured human fibroblasts; assay type: cell-based; settings: 10^-7 M ATRA, 3% extract
Procedure: […] Several different experimental conditions were used for the fibroblasts.
The conditions that were tested on the fibroblasts were as follows: • Control condition (non-treated cells) • Cells treated with 10^−7M all-trans retinoic acid (ATRA) • Cells treated with 3% of the extract from example 1 • Cells treated with 10^−7 M all-trans retinoic acid and 3% of the extract from example 1.
The results illustrated in FIGS. 1 and 2 represent the quantities of HSP obtained by immunoblotting carried out on the human fibroblasts following the treatments in various culture conditions.

HSP 70 [2] = assay: Ex vivo immunostaining of HSP 70 in cultured skin samples; assay type: cell-based; settings: ex vivo skin cultured 5 days; 10^-7 retinoic acid; 1-3% extract
Text: Ex vivo immunostaining studies have enabled it to be determined that HSP 70 is expressed in skin samples which have been cultured for 5 days. The samples were either treated or untreated with 10^−7retinoic acid plus 1-3% of the extract from example 1.

IL-1 alpha = assay: Interleukin-1 ELISA in HaCat keratinocytes and fibroblasts (inflammation induced by retinoids); assay type: cell-based, human; settings: 10^-7 M ATRA 6 days, 3% extract 48 hours
Procedure: The Artemia extract from example 1 was used at 3% in in vitro tests in order to show the benefits of applying it in combination with retinoids, with the overall goal of diminishing the inflammation induced by retinoids.
Human HaCat keratinocytes and fibroblasts were cultured in 100mm diameter culture dishes. When the cells reached 50% confluence, they were either treated with 3% of extract from example 1 or not, for 48 hours. In a parallel manner, concentrations of 10^−7M all-trans retinoic acid (ATRA) were, or were not, applied.
The following experimental conditions were used for the different treatment groups: • Control condition (no treatment); • Extract from example 1 for 48n hours; • All-trans retinoic acid (ATRA) for 6 days; • All-trans retinoic acid (ATRA) for 6 days of which 48 hours were treated in combination with the extract from example 1.
After six days in culture, the dose of Interleukin-1 was determined using ELISA, to show evidence of an inflammatory reaction.

HSP 70 [3] = settings: ex vivo skin irradiated with 200 mJ/cm^2 UVB; 10^-7 retinoic acid; 1-3% extract
Procedure: The samples were either treated or untreated with 10^−7retinoic acid plus 1-3% of the extract from example 1. The skin samples were subsequently fixed in 9% formol salt for 10 hours. They were then embedded in paraffin using an automated method. 2-3 urn sections were then cut to be used for immunostaining.
The experiments in example three were repeated except that the skin samples were irradiated with a 200 mJ/cm^2 dose of UVB.

CC1=C(/C=C/C(C)=C/C=C/C(C)=C/C(=O)O)C(C)(C)CCC1 [retinoic acid, all-trans retinoic acid] was tested, and the “HSP 70 expression (immuno-blot, FIG. 2)” value (HSP 70 [1]; aging human fibroblasts (printed: cultured)) was “slightly augmented”, the “HSP 70 expression (immuno-blot, FIG. 1)” value (HSP 70 [1]; young human fibroblasts (printed: cultured for 24 hours)) was “diminished” and the “HSP 70 expression in skin samples (immunostaining)” value (HSP 70 [2]) was “clearly express less HSP 70 than non-treated skin samples”. The “IL-1 alpha concentration / inflammatory response (ELISA, FIG. 3)” value (IL-1 alpha) was “significantly augmented” and the “HSP 70 expression in skin samples following UV stress (immunostaining)” value (HSP 70 [3]) was “clearly diminished”.
